These results are taken from US20230286970A1, “NOVEL OXADIAZOLE-BASED SELECTIVE HDAC6 INHIBITORS” (ITALFARMACO S.P.A., priority 2020, published 2023).

Read-outs that look alike come from different tables or passages of the source.

The target in one data set is recombinant human HDAC6 (Homo sapiens (Human), UniProt Q9UBN7). Briefly: Enzymatic screening, HDAC6 inhibition (fluorogenic FdL_G substrate). Type of data set: biochemical. The essentials: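 Enzyme was preincubated with compound (8 doses, triplicate, 1% DMSO) in 25 mM Tris-HCl pH 8, 130 mM NaCl, 0.05% Tween-20, 10% glycerol, with BSA. A FLUOR DE LYS-Green substrate was then added, and fluorescence was read after developer plus 2 μM TSA.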

Another data set has as its target recombinant human HDAC1 (Homo sapiens (Human), UniProt Q13547). Briefly: Enzymatic screening, HDAC1 inhibition (fluorogenic FdL_G substrate). Type of data set: biochemical. The essentials:
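Recombinant human HDAC1 inhibition was measured fluorometrically using the FLUOR DE LYS-Green (FdL_G) substrate. Compounds at 8 doses (1% DMSO final) in Tris-HCl pH 8 buffer with NaCl, Tween-20 and glycerol were preincubated in triplicate with enzyme and 1 mg/mL BSA, then given substrate. Developer I plus 2 μM TSA was added, and fluorescence read after 25 minutes in the dark.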

Another data set deals with HDAC2 (Homo sapiens (Human), UniProt Q92769). Briefly: Enzymatic screening, HDAC2 inhibition. Type of data set: biochemical.
The target of another data set is HDAC3 (Homo sapiens (Human), UniProt O15379). Briefly: Enzymatic screening, HDAC3 inhibition. Type of data set: biochemical.
The next data set has as its target HDAC4 (Homo sapiens (Human), UniProt P56524). Briefly: Enzymatic screening, HDAC4 inhibition. Type of data set: biochemical. The essentials: (§1)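 Enzyme was preincubated with compound (8 doses, triplicate, 1% DMSO) in 25 mM Tris-HCl pH 8, 130 mM NaCl, 0.05% Tween-20, 10% glycerol, with BSA at 2 mg/mL (HDAC4, HDAC9) or 1 mg/mL (HDAC8, HDAC10). A FLUOR DE LYS, FLUOR DE LYS-Green or Boc-Lys(Tfa)-AMC substrate was then added, and fluorescence was read after developer plus 2 μM TSA.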

The next data set deals with HDAC5 (Homo sapiens (Human), UniProt Q9UQL6). Kind of data set: Enzymatic screening, HDAC5 inhibition. Type of data set: biochemical.
For the next data set, the target named is HDAC7 (Homo sapiens (Human), UniProt Q8WUI4). Briefly: Enzymatic screening, HDAC7 inhibition. It counts as biochemical.
The next data set has as its target HDAC8 (Homo sapiens (Human), UniProt Q9BY41). Kind of data set: Enzymatic screening, HDAC8 inhibition. Type of data set: biochemical. In outline:
as §1

The target in the next data set is HDAC9 (Homo sapiens (Human), UniProt Q9UKV0). Kind of data set: Enzymatic screening, HDAC9 inhibition. Type of data set: biochemical. In outline: as §1
For the next data set, the target named is HDAC10 (Homo sapiens (Human), UniProt Q969S8). Briefly: Enzymatic screening, HDAC10 inhibition. It counts as biochemical. In outline:
as §1

Another data set has as its target HDAC11 (Homo sapiens (Human), UniProt Q96DB2). Kind of data set: Enzymatic screening, HDAC11 inhibition. Type of data set: biochemical.
The subject of data set [1] is α-tubulin acetylation in 697 cell line. Briefly: In vitro α-tubulin acetylation in 697 cell line (ELISA). It counts as cell-based. The settings on record: 16 hours, read-out: fold increase @ 1 uM TubAc (ratio of acetylated tubulin and total tubulin towards control). The essentials:
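B 697 cells in RPMI 10% FCS were treated for 16 h at 37 °C with compound at 1000, 333, 111 or 37 nM. Lysate (0.3 μg protein) was coated and probed by ELISA for acetylated and total α-tubulin, read at 450 nm. The acetylated/total ratio is given as fold over untreated control.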

The conditions of data set [2]: 90 min, pH 7.4.
The conditions of data set [3]: 90 min, pH 7.4. This is another data set of the same source.
Procedure: (§2) Test compounds were incubated in rat and human liver S9 fraction at 37° C. up to 90 minutes in order to evaluate their stability to Phase I metabolism by hepatic enzymes. Each test compound was incubated at μM concentration (50 μM when the samples were analysed by UV/HPLC, 1 or 2 μM when the samples were analysed by LC-MS/MS) with S9 fraction (protein content 2 mg/m L) in 100 mM phosphate buffer (pH 7.4), 3.3 mM MgCl2 and 1.3 mM NADPH for 0, 10, 30, 60 and 90 minutes at 37° C. in a thermostated oscillating bath. The reaction was stopped placing samples on ice bath and adding acidified acetonitrile. After centrifugation (10 minutes at 14000 rpm) an aliquot of the supernatant was diluted with water, filtered with 0.45 μm regenerated cellulose syringe filters and injected in HPLC-UV or in LC-MS/MS. The percentage of the remaining amount at the various incubation times with respect to the initial amount were calculated.
The conditions of data set [4]: 4 h.
For data set [5] the following is noted: 4 h. This is another data set of the same source.
Another data set is described as follows: Stability in rat plasma. The settings on record: after 4 hours, 37° C.
The nature of data set [6]: Stability in human plasma. The settings on record: after 4 hours, 37° C.
The nature of data set [7]: Stability to Phase I metabolism in rat S9 liver fraction. The settings on record: after 90 minutes, 37° C.
Data set [8] can be described thus: Stability to Phase I metabolism in human S9 liver fraction. To be noted: after 90 minutes, 37° C.
Procedure: as §2

Chain of HDAC10 (Q969S8 whole entry): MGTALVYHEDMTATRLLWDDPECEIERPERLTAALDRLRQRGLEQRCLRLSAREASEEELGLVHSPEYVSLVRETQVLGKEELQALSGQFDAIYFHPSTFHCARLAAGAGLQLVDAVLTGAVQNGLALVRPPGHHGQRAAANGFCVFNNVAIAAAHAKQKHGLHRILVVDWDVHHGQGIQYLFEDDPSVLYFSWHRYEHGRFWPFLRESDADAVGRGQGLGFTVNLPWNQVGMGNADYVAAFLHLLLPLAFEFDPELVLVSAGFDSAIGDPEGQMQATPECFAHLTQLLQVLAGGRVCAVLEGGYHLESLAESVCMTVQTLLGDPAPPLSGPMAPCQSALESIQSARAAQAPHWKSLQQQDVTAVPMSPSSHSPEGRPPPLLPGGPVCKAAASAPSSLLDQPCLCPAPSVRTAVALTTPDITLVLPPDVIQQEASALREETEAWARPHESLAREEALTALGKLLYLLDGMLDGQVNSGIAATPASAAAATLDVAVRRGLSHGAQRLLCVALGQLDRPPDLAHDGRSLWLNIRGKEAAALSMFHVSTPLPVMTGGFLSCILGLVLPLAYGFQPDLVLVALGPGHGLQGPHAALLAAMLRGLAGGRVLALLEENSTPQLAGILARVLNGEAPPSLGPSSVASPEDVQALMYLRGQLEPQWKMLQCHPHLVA
Chain of HDAC2 (Q92769 whole entry): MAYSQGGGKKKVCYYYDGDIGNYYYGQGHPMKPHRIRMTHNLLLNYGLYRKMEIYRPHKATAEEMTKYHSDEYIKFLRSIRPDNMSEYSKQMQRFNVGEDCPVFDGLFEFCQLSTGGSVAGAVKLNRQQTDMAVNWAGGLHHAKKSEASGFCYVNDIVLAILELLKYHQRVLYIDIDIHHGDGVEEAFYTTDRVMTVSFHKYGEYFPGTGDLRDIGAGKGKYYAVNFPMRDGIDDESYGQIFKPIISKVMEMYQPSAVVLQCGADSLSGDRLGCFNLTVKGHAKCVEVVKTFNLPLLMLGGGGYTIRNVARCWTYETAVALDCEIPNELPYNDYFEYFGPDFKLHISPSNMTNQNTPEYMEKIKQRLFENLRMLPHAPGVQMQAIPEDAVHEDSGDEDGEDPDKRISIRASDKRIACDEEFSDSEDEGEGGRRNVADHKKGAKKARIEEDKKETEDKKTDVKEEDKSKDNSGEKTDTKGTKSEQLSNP
Chain of recombinant human HDAC1 (Q13547 whole entry): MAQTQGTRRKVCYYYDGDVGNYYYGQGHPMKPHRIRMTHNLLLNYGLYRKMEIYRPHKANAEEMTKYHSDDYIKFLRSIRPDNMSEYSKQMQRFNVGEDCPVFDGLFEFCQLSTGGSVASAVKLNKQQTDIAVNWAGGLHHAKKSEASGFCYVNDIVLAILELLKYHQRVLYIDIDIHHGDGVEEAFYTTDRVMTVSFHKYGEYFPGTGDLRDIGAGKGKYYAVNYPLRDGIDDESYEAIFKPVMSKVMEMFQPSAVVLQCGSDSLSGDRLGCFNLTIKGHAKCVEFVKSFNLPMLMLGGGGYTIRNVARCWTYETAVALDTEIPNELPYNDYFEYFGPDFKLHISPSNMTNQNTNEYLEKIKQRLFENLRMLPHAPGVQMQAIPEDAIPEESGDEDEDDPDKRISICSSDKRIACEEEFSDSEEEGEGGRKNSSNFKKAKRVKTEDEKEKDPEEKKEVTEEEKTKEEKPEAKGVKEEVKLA
Chain of HDAC4 (P56524 whole entry): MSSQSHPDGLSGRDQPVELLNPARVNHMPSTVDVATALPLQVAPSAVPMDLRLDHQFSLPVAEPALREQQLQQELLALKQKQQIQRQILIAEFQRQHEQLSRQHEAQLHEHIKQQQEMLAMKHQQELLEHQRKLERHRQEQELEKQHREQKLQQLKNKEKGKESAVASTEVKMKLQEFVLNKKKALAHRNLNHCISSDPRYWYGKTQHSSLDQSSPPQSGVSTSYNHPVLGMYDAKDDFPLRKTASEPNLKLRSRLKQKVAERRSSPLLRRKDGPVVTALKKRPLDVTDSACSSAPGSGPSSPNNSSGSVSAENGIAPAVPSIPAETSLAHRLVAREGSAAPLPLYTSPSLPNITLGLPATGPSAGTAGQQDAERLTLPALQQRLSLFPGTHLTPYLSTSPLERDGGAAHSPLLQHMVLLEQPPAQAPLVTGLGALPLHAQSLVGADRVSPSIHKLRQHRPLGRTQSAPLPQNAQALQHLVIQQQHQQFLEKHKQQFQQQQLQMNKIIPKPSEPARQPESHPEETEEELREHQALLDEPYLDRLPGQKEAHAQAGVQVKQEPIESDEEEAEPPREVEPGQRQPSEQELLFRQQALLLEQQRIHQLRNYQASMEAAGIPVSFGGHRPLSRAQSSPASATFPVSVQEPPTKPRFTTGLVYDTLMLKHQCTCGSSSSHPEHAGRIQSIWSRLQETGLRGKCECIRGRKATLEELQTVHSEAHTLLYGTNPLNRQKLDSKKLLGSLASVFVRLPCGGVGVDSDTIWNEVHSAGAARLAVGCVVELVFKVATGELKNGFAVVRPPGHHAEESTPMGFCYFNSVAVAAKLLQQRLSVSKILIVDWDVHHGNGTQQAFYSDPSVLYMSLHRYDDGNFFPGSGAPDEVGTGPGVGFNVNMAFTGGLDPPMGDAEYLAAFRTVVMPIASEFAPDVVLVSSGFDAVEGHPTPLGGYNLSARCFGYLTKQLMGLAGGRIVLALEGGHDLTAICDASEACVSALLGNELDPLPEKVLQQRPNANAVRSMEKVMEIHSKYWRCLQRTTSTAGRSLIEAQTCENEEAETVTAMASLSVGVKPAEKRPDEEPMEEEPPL
Chain of HDAC7 (Q8WUI4 whole entry): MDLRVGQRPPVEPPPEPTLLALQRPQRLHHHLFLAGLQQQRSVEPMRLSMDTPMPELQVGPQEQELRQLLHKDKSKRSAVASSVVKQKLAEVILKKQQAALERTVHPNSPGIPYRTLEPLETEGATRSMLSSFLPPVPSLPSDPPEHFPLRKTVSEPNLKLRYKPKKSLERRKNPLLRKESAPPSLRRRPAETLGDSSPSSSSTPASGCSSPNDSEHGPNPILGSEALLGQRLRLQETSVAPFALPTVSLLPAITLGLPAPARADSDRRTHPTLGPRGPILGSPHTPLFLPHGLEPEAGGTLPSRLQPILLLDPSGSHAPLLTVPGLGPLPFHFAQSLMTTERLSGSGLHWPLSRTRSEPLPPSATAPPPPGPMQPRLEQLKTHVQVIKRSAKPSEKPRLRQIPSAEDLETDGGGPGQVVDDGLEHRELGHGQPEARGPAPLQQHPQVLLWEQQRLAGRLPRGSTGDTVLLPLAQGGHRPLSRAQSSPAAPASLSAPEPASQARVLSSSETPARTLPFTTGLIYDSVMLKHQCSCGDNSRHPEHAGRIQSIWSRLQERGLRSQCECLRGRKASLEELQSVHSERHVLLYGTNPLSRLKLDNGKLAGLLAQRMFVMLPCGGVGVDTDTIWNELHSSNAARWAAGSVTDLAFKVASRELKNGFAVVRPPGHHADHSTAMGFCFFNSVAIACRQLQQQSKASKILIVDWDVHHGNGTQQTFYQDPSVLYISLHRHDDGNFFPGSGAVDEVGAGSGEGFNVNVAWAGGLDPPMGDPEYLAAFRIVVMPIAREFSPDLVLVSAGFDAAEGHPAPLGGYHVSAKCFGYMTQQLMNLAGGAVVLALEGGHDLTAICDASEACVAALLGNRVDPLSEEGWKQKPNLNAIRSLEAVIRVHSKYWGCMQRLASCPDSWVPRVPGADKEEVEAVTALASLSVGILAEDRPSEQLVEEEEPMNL
Chain of HDAC9 (Q9UKV0 whole entry): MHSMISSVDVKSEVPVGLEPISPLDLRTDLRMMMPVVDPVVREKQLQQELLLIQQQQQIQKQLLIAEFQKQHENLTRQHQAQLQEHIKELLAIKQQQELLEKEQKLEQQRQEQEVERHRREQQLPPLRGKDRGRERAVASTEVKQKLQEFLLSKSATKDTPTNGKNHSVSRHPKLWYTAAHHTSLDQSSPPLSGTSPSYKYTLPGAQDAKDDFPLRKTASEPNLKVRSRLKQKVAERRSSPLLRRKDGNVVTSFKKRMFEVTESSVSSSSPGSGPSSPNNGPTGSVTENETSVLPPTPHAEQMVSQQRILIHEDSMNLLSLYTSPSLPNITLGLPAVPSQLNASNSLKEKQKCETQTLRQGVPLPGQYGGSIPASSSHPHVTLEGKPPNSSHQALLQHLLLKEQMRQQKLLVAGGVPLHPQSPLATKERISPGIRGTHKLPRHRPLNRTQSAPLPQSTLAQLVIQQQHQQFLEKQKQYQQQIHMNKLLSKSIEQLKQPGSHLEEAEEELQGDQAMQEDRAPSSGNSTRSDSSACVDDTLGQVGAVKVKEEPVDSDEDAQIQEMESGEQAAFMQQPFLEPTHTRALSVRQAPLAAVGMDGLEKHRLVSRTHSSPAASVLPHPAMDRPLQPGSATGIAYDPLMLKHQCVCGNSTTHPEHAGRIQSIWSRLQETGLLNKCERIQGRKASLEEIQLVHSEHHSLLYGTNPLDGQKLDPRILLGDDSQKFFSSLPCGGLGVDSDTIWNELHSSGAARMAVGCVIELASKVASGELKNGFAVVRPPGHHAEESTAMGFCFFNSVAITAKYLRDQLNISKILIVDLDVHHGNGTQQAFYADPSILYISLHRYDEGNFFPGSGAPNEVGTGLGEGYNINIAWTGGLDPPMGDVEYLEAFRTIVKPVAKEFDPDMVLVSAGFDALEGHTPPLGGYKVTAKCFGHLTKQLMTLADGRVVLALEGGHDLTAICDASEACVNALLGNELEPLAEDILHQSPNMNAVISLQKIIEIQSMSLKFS
Chain of HDAC8 (Q9BY41 whole entry): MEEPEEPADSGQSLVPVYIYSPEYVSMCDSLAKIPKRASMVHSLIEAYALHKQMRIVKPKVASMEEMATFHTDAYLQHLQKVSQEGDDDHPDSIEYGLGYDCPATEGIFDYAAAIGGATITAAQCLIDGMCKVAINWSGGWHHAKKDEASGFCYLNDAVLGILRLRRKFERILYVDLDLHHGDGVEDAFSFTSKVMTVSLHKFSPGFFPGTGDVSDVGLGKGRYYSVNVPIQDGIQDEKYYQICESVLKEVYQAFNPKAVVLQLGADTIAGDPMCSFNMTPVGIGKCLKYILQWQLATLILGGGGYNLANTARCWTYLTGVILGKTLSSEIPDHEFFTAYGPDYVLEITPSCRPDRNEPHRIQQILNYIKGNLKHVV

Take `O=C1Nc2ccc(-c3cn(Cc4ccc(-c5nnc(C(F)F)o5)cn4)nn3)cc2C12CCNCC2` [Compd. 19, 5-(1-((5-(5-(difluoromethyl)-1,3,4-oxadiazol-2-yl)pyridin-2-yl)methyl)-1H-1,2,3-triazol-4-yl)spiro[indoline-3,4′-piperidin]-2-one]: the concentration for half-maximal inhibition (IC50) is 0.011 µM on recombinant human HDAC6; greater than 200 µM at recombinant human HDAC1; greater than 30 µM at HDAC2; greater than 30 µM against HDAC3; greater than 30 µM against HDAC4; greater than 30 µM against HDAC5. For the same compound, the half-inhibitory concentration (IC50) at HDAC7 was greater than 30 µM; on HDAC8, 572 µM; against HDAC9, greater than 30 µM; against HDAC10, greater than 30 µM; against HDAC11, greater than 30 µM. For the same compound, the fold induction at 1 µM in data set [1] worked out at 4. Moreover, the “residual percentage in RAT S9 FRACTION” value in [2] is 94%. Further, the “residual percentage in HUMAN S9 FRACTION” value in data set [3] is reported as 96%. Moreover, the “residual percentage in RAT PLASMA” value in [4] was determined as 83%. Besides, in data set [5], the “residual percentage in HUMAN PLASMA” value amounted to 83%.
On to `O=C1Nc2ccc(-c3cn(Cc4ccc(-c5nnc(C(F)F)o5)cc4)nn3)cc2C12CCNCC2` [compound 46, 5-(1-(4-(5-(difluoromethyl)-1,3,4-oxadiazol-2-yl)benzyl)-1H-1,2,3-triazol-4-yl)spiro[indoline-3,4′-piperidin]-2-one], for which the IC50 on recombinant human HDAC6 is 0.02 µM; at recombinant human HDAC1, greater than 200 µM. Moreover, in [1], the fold induction at 1 µM turned out to be 5. Also, in data set [2], the “residual percentage in RAT S9 FRACTION” value is 60%. Further, in data set [3], the “residual percentage in HUMAN S9 FRACTION” value is given as 81%. Further, the “residual percentage in RAT PLASMA” value in [4] is on record as 72%. Also, the “residual percentage in HUMAN PLASMA” value in [5] was 74%.
Turning to `Nc1nc2ccc(-c3cn(Cc4ccc(-c5nnc(C(F)F)o5)cn4)nn3)cc2s1` [Compd. 1, 6-(1-((5-(5-(difluoromethyl)-1,3,4-oxadiazol-2-yl)pyridin-2-yl)methyl)-1H-1,2,3-triazol-4-yl)benzo[d]thiazol-2-amine], the IC50 on recombinant human HDAC6 was 0.007 µM; on recombinant human HDAC1, greater than 200 µM; on HDAC2, greater than 30 µM; at HDAC3, greater than 30 µM; on HDAC4, greater than 30 µM; against HDAC5, greater than 30 µM. Also, the IC50 was greater than 30 µM against HDAC7; greater than 200 µM against HDAC8; greater than 30 µM on HDAC9; greater than 30 µM against HDAC10; greater than 30 µM against HDAC11. In addition, in data set [1], the fold induction at 1 µM was 25. Also, in “Stability in rat plasma”, the “residual percentage in RAT PLASMA” value was 79%. Moreover, the “residual percentage in HUMAN PLASMA” value in data set [6] was determined as 85%. The “residual percentage in RAT S9 FRACTION” value in [7] was 96%. Moreover, in data set [8], the “residual percentage in HUMAN S9 FRACTION” value came out at 93%.
Take `Cn1c(N)nc2cc(-c3nnn(Cc4ccc(-c5nnc(C(F)F)o5)cc4)n3)ccc21` [compound 11, 5-(2-(4-(5-(difluoromethyl)-1,3,4-oxadiazol-2-yl)benzyl)-2H-tetrazol-5-yl)-1-methyl-1H-benzo[d]imidazol-2-amine]: the IC50 on recombinant human HDAC6 was 0.019 µM; at recombinant human HDAC1, greater than 200 µM; on HDAC2, greater than 30 µM; on HDAC3, greater than 30 µM; against HDAC4, greater than 30 µM; against HDAC5 it was greater than 30 µM. For the same compound, the IC50 was greater than 30 µM at HDAC7; greater than 200 µM against HDAC8; greater than 30 µM against HDAC9; greater than 30 µM against HDAC10; greater than 30 µM on HDAC11. Also, in data set [1], the fold induction at 1 µM was 18. Further, the “residual percentage in RAT PLASMA” value in “Stability in rat plasma” is 86%. The “residual percentage in HUMAN PLASMA” value in data set [6] came to 83%. Also, in [7], the “residual percentage in RAT S9 FRACTION” value was 90%. The “residual percentage in HUMAN S9 FRACTION” value in data set [8] is listed as 70%.
Turning to `Nc1ccc(-c2cn(Cc3ccc(-c4nnc(C(F)F)o4)c(F)c3F)nn2)cn1` [compound 21, 5-(1-(4-(5-(difluoromethyl)-1,3,4-oxadiazol-2-yl)-2,3-difluorobenzyl)-1H-1,2,3-triazol-4-yl)pyridin-2-amine], the IC50 is 0.017 µM on recombinant human HDAC6; greater than 200 µM on recombinant human HDAC1; greater than 30 µM on HDAC2; greater than 30 µM against HDAC3; greater than 30 µM against HDAC4; greater than 30 µM at HDAC5. Moreover, the IC50 against HDAC7 was greater than 30 µM; at HDAC8, greater than 200 µM; on HDAC9, greater than 30 µM; at HDAC10, greater than 30 µM; at HDAC11, greater than 30 µM. Also, the fold induction at 1 µM in data set [1] amounted to 16. In “Stability in rat plasma”, the “residual percentage in RAT PLASMA” value was 75%. Also, the “residual percentage in HUMAN PLASMA” value in data set [6] is on record as 84%. For the same compound, in data set [7], the “residual percentage in RAT S9 FRACTION” value amounted to 90%. Besides, the “residual percentage in HUMAN S9 FRACTION” value in [8] amounted to 99%.
